Results taken from US12606572B2, “Substituted heterocycles and uses thereof” (Kumquat Biosciences Inc., priority 2023, dated 2026).

Columns and labels:
KRAS WT = biological target: T1, KRAS WT (Homo sapiens, UniProt P01116); assay: HTRF assay, interaction of GST-tagged K-Ras with His-tagged hSOS1 (KRAS wildtype); assay type: biochemical; conditions: <500 nM, read-out: Inhibition of KRAS WT (IC50)
T1 construct: made in house; host or cells: E. coli BL21 (DE3)
Procedure, shortened: (§1)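 GST-K-Ras (G12S or WT) with anti-GST-Eu donor mixed with His-hSOS1 and anti-6His-XL665 acceptor in ~5 mM HEPES pH 7.4, 150 mM NaCl, 1 mM DTT, 0.05% BSA, 0.0025% Igepal. After ~10 min or longer, HTRF 665/620 nm ratio read.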

KRAS G12S = biological target: T2, KRAS G12S (Homo sapiens, UniProt P01116, G12S); assay: HTRF assay, interaction of GST-tagged K-Ras with His-tagged hSOS1 (KRAS G12S); assay type: biochemical; conditions: <500 nM, read-out: Inhibition of KRAS G12S (IC50)
T2 construct: made in house; host or cells: E. coli BL21 (DE3)
T2 sequence (P01116 1-188 isoform P01116-2 G12S): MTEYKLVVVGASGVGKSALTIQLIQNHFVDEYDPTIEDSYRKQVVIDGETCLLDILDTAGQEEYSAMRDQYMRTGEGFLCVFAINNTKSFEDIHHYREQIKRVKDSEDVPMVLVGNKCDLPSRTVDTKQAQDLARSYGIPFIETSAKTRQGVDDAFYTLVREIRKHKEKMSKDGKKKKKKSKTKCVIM
Procedure, shortened: as §1

T1 sequence (P01116 1-188 isoform P01116-2): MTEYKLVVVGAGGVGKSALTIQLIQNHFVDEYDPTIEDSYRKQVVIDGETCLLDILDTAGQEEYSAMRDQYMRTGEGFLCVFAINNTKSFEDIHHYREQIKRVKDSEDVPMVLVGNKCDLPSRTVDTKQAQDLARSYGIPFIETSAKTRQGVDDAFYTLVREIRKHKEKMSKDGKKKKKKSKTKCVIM

IC50 (KRAS WT) [nM]	IC50 (KRAS G12S) [nM]	SMILES
< 500	< 500	Cc1cn(C(=O)N2CC[C@@H](N3CCCCc4nc(-c5ccc(F)c6sc(N)c(C#N)c56)c(F)c5nc(OC[C@@]67CCCN6C[C@H](F)C7)nc3c45)[C@H]2C)c(C)n1 [Compound 454, 2-amino-4-(11-((2R,3R)-1-(2,4-dimethyl-1H-imidazole-1-carbonyl)-2-methylpyrrolidin-3-yl)-4-fluoro-2-(((2R,7aS)-2-fluorotetrahydro-1H-pyrrolizin-7a (5H)-yl)methoxy)-8,9,10,11-tetrahydro-7H-1,3,6,11-tetraazacycloocta[de]naphthalen-5-yl)-7-fluorobenzo[b]thiophene-3-carbonitrile]
< 500	< 500	Cc1cn(C(=O)N2CC[C@@H](N3CCOc4c(Cl)c(-c5ccc(F)c6sc(N)c(C#N)c56)c(F)c5nc(OC[C@@]67CCCN6C[C@H](F)C7)nc3c45)[C@H]2C)c(C)n1 [Compound 403, 2-amino-4-(8-chloro-4-((2R,3R)-1-(2,4-dimethyl-1H-imidazole-1-carbonyl)-2-methylpyrrolidin-3-yl)-10-fluoro-2-(((2R,7aS)-2-fluorotetrahydro-1H-pyrrolizin-7a(5H)-yl)methoxy)-5,6-dihydro-4H-[1,4]oxazepino[5,6,7-de]quinazolin-9-yl)-7-fluorobenzo[b]thiophene-3-carbonitrile]
< 500	< 500	C[C@H](O)[C@H]1COc2c(Cl)c(-c3ccc(F)c4sc(N)c(C#N)c34)c(F)c3nc(OC[C@@]45CCCN4C[C@H](F)C5)nc(c23)N1CC1CCCN1C(=O)n1ccnc1 (stereo partly drawn) [Compound 495, 4-((5R)-4-((1-(1H-imidazole-1-carbonyl)pyrrolidin-2-yl)methyl)-8-chloro-10-fluoro-2-(((2R,7aS)-2-fluorotetrahydro-1H-pyrrolizin-7a(5H)-yl)methoxy)-5-((S)-1-hydroxyethyl)-5,6-dihydro-4H-[1,4]oxazepino [5,6,7-de]quinazolin-9-yl)-2-amino-7-fluorobenzo[b] thiophene-3-carbonitrile]
< 500	< 500	CC1([C@@H]2[C@H](CN3CCOc4c(Cl)c(-c5ccc(F)c6sc(N)c(C#N)c56)c(F)c5nc(OC[C@@]67CCCN6C[C@H](F)C7)nc3c45)CN2C(=O)n2cnc(F)n2)CC1 (single isomer, unassigned) [Compound 420]
< 500	< 500	CC(C)[C@@H]1[C@H](CN2CCOc3c(Cl)c(-c4ccc(F)c5sc(N)c(C#N)c45)c(F)c4nc(OC[C@@]56CCCN5C[C@H](F)C6)nc2c34)CN1C(=O)n1cnc(Cl)n1 [Compound 493, 2-amino-4-(8-chloro-4-(((2R,3R)-1-(3-chloro-1H-1,2,4-triazole-1-carbonyl)-2-isopropylazetidin-3-yl)methyl)-10-fluoro-2-(((2R,7aS)-2-fluorotetrahydro-1H-pyrrolizin-7a (5H)-yl)methoxy)-5,6-dihydro-4H-[1,4]oxazepino[5,6,7-de]quinazolin-9-yl)-7-fluorobenzo[b]thiophene-3-carbonitrile]
< 500	< 500	C[C@@H]1[C@H](N2CCCc3nc(-c4ccc(F)c5sc(N)c(C#N)c45)c(F)c4nc(OC[C@@]56CCCN5C[C@H](F)C6)nc2c34)CCN1C(=O)n1cnc(Cl)n1 [Compound 433, 2-amino-4-(10-((2R,3R)-1-(3-chloro-1H-1,2,4-triazole-1-carbonyl)-2-methylpyrrolidin-3-yl)-4-fluoro-2-(((2R,7aS)-2-fluorotetrahydro-1H-pyrrolizin-7a(5H)-yl)methoxy)-7,8,9,10-tetrahydro-1,3,6,10-tetraazacyclohepta[de]naphthalen-5-yl)-7-fluorobenzo[b]thiophene-3-carbonitrile]
